Holding throughout (assay type): cell-based
For test [1], the target named is Beta-2 adrenergic receptor (Rattus norvegicus) (UniProt P10608). Briefly: Activation of beta-2 adrenergic receptor in rat L6 cells assessed as enhancement of 2-deoxyglucose uptake at 10 uM preincubated for 4 hrs followed by 2-deoxyglucose addition measured after 20 mins by fluorescence assay in presence of AMPK inhibitor dorsomorphin.
For test [2] the target is unchanged. Briefly: Activation of beta-2 adrenergic receptor in rat L6 cells assessed as enhancement of 2-deoxyglucose uptake preincubated for 4 hrs followed by 2-deoxyglucose addition measured after 20 mins by fluorescence assay.
Test [3] shares this target. Kind of test: Activation of beta-2 adrenergic receptor in rat L6 cells assessed as enhancement of 2-deoxyglucose uptake at 10 uM preincubated for 4 hrs followed by 2-deoxyglucose addition measured after 20 mins by fluorescence assay in presence of beta-2 selective adrenergic receptor antagonist ICI118551.
Test [4] has the same target. Kind of test: Activation of beta-2 adrenergic receptor in rat L6 cells assessed as enhancement of 2-deoxyglucose uptake at 10 uM preincubated for 4 hrs followed by 2-deoxyglucose addition measured after 20 mins by fluorescence assay relative to control.
Test [5] has the same target. Briefly: Activation of beta-2 adrenergic receptor in rat L6 cells assessed as enhancement of 2-deoxyglucose uptake at 10 uM preincubated for 4 hrs followed by 2-deoxyglucose addition measured after 20 mins by fluorescence assay in presence of PI3K inhibitor LY294002.
Test [6] has the same target. Kind of test: Activation of beta-2 adrenergic receptor in rat L6 cells assessed as enhancement of 2-deoxyglucose uptake at 10 uM preincubated for 4 hrs followed by 2-deoxyglucose addition measured after 20 mins by fluorescence assay in presence of non-selective beta-adrenergic receptor antagonist propranolol.

These results are taken from ChEMBL document CHEMBL3585333, “Higenamine 4'-O-β-d-glucoside in the lotus plumule induces glucose uptake of L6 cells through β2-adrenergic receptor” (Bioorg Med Chem, 2015).

Each structure is given as a SMILES string. Calls of active or inactive are those of the source. The rule behind the calls is not given here.

Beta-2 adrenergic receptor (Rattus norvegicus), sequence (P10608 whole entry, looked up): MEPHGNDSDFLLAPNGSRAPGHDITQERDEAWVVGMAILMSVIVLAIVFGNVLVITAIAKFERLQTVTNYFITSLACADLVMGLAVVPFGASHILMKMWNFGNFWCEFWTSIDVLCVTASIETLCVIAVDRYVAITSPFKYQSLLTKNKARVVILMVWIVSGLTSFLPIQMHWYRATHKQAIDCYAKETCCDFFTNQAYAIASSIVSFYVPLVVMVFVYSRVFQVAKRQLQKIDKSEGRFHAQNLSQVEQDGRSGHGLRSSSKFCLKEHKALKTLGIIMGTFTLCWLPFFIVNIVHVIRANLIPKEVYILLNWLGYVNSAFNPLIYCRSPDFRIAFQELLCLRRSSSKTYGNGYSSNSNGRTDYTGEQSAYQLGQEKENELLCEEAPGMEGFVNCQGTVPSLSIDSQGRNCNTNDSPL

As to `OC[C@H]1O[C@@H](Oc2ccc(C[C@@H]3NCCc4cc(O)c(O)cc43)cc2)[C@H](O)[C@@H](O)[C@@H]1O`, the result in test [1] and in test [5] was Active. Moreover, in test [2], the Activity entry was “Dose-dependent effect”. Besides, the result in test [3] and in test [6] was inactive. Further, the fold change (FC) in test [4] was 2.1.
